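Tested at 5 concentrations; 48 h exposure; 96-well plates; endpoints linearly interpolated, else capped at highest concentration. GI50 = concentration required for 50% inhibition of growth. At the TGI there is no net growth.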
Experiments:
Assay in all cases: growth of human tumour cells (NCI), 48 h
[1] = test system: 786-0 renal
[2] = test system: A498 renal
[3] = test system: A549 NSCLC
[4] = test system: ACHN renal
[5] = test system: BT-549 breast
[6] = test system: CAKI-1 renal
[7] = test system: CCRF-CEM leukemia
[8] = test system: COLO 205 colon
[9] = test system: DU-145 prostate
[10] = test system: EKVX NSCLC
[11] = test system: HCC-2998 colon
[12] = test system: HCT-116 colon
[13] = test system: HCT-15 colon
[14] = test system: HL-60(TB) leukemia
[15] = test system: HOP-62 NSCLC
[16] = test system: HOP-92 NSCLC
[17] = test system: HS 578T breast
[18] = test system: HT29 colon
[19] = test system: IGROV1 ovarian
[20] = test system: K-562 leukemia
[21] = test system: LOX IMVI melanoma
[22] = test system: M14 melanoma
[23] = test system: MALME-3M melanoma
[24] = test system: MCF7 breast
[25] = test system: MDA-MB-231 breast
[26] = test system: MDA-MB-435
[27] = test system: MOLT-4 leukemia
[28] = test system: NCI-H226 lung
[29] = test system: NCI-H23 lung
[30] = test system: NCI-H460 lung
[31] = test system: NCI-H522 lung
[32] = test system: NCI/ADR-RES ovarian
[33] = test system: OVCAR-3 ovarian
[34] = test system: OVCAR-4 ovarian
[35] = test system: OVCAR-5 ovarian
[36] = test system: OVCAR-8 ovarian
[37] = test system: PC-3 prostate
[38] = test system: RPMI-8226 leukemia
[39] = test system: RXF 393 renal
[40] = test system: SF-268 CNS
[41] = test system: SF-295 CNS
[42] = test system: SF-539 CNS
[43] = test system: SK-MEL-2 melanoma
[44] = test system: SK-MEL-28 melanoma
[45] = test system: SK-MEL-5 melanoma
[46] = test system: SK-OV-3 ovarian
[47] = test system: SN12C renal
[48] = test system: SNB-19 CNS
[49] = test system: SNB-75 CNS
[50] = test system: SR leukemia
[51] = test system: SW-620 colon
[52] = test system: TK-10 renal
[53] = test system: U251 CNS
[54] = test system: UACC-257 melanoma
[55] = test system: UACC-62 melanoma
[56] = test system: UO-31 renal
[57] = test system: KM12 colon
[58] = test system: T-47D breast

C=C1C(=O)O[C@@H]2C[C@@H](C)/C=C\C(=O)[C@](C)(OC(C)=O)C[C@H](OC(=O)/C(C)=C\C)[C@@H]12
GI50 [1]: 2.66 µM
TGI [1]: 5.93 µM
GI50 [2]: 6.15 µM
TGI [2]: 13.5 µM
GI50 [3]: 7.78 µM
TGI [3]: 24.2 µM
GI50 [4]: 0.466 µM
TGI [4]: 0.885 µM
GI50 [5]: 3.02 µM
TGI [5]: 6.31 µM
GI50 [6]: 1.09 µM
TGI [6]: 3.97 µM
GI50 [7]: 0.834 µM
TGI [7]: 4.41 µM
GI50 [8]: 0.75 µM
TGI [8]: 2.6 µM
GI50 [9]: 2.52 µM
TGI [9]: 6.12 µM
GI50 [10]: 2.63 µM
TGI [10]: 6.27 µM
GI50 [11]: 4.14 µM
TGI [11]: 8.31 µM
GI50 [12]: 0.835 µM
TGI [12]: 3.13 µM
GI50 [13]: 0.675 µM
TGI [13]: 2.13 µM
GI50 [14]: 1 µM
TGI [14]: 5.75 µM
GI50 [15]: 7.2 µM
TGI [15]: 20.7 µM
GI50 [16]: 3.74 µM
TGI [16]: 8.05 µM
GI50 [17]: 12.3 µM
TGI [17]: > 25 µM
GI50 [18]: 1.06 µM
TGI [18]: 4 µM
GI50 [19]: 4.31 µM
TGI [19]: 9.91 µM
GI50 [20]: 0.978 µM
TGI [20]: > 25 µM
GI50 [21]: 2.88 µM
TGI [21]: 6.18 µM
GI50 [22]: 3.69 µM
TGI [22]: 11 µM
GI50 [23]: 1.1 µM
TGI [23]: 5.11 µM
GI50 [24]: 0.971 µM
TGI [24]: 5.6 µM
GI50 [25]: 1.7 µM
TGI [25]: 5.89 µM
GI50 [26]: 3.91 µM
TGI [26]: 12.4 µM
GI50 [27]: 0.896 µM
TGI [27]: 4.25 µM
GI50 [28]: 3.48 µM
TGI [28]: 6.83 µM
GI50 [29]: 1.21 µM
TGI [29]: 5.95 µM
GI50 [30]: 7.02 µM
TGI [30]: 23.6 µM
GI50 [31]: 0.508 µM
TGI [31]: 1.22 µM
GI50 [32]: 2.8 µM
TGI [32]: > 25 µM
GI50 [33]: 0.94 µM
TGI [33]: 3.2 µM
GI50 [34]: 1.58 µM
TGI [34]: 8.48 µM
GI50 [35]: 2.53 µM
TGI [35]: 5.97 µM
GI50 [36]: 1.11 µM
TGI [36]: 23.9 µM
GI50 [37]: 4.77 µM
TGI [37]: 13.7 µM
GI50 [38]: 0.893 µM
TGI [38]: 2.94 µM
GI50 [39]: 0.683 µM
TGI [39]: 1.87 µM
GI50 [40]: 5.38 µM
TGI [40]: 20.8 µM
GI50 [41]: 7.73 µM
TGI [41]: 20.2 µM
GI50 [42]: 3.19 µM
TGI [42]: 6.52 µM
GI50 [43]: 4.45 µM
TGI [43]: 12.1 µM
GI50 [44]: 1.81 µM
TGI [44]: 5.49 µM
GI50 [45]: 3.7 µM
TGI [45]: 7.25 µM
GI50 [46]: 11.1 µM
TGI [46]: > 25 µM
GI50 [47]: 5.73 µM
TGI [47]: > 25 µM
GI50 [48]: 11.5 µM
TGI [48]: > 25 µM
GI50 [49]: 4.07 µM
TGI [49]: 17.6 µM
GI50 [50]: 0.845 µM
TGI [50]: 5.2 µM
GI50 [51]: 1.01 µM
TGI [51]: 3.54 µM
GI50 [52]: 0.996 µM
TGI [52]: 3.32 µM
GI50 [53]: 3.7 µM
TGI [53]: 8.64 µM
GI50 [54]: 2.66 µM
TGI [54]: 6.77 µM
GI50 [55]: 1.55 µM
TGI [55]: 5.93 µM
GI50 [56]: 2.91 µM
TGI [56]: 6 µM

CCNC(=O)Oc1ccc(/C(=C(/C)c2ccccc2)c2ccc(OCCN3CCCCCC3)cc2)cc1
GI50 [1]: 1.71 µM
TGI [1]: 3.46 µM
GI50 [2]: 10.4 µM
TGI [2]: 24.7 µM
GI50 [3]: 3.26 µM
TGI [3]: 13.1 µM
GI50 [4]: 3.37 µM
TGI [4]: 10.6 µM
GI50 [5]: 1.71 µM
TGI [5]: 3.38 µM
GI50 [6]: 1.94 µM
TGI [6]: 4.28 µM
GI50 [7]: 2.92 µM
TGI [7]: 28.7 µM
GI50 [8]: 1.56 µM
TGI [8]: 2.98 µM
GI50 [9]: 4.92 µM
TGI [9]: 20.3 µM
GI50 [10]: 3.24 µM
TGI [10]: 12.2 µM
GI50 [11]: 2 µM
TGI [11]: 3.89 µM
GI50 [13]: 1.53 µM
TGI [13]: 3.33 µM
GI50 [14]: 1.8 µM
TGI [14]: 6.15 µM
GI50 [15]: 2.05 µM
TGI [15]: 4.82 µM
GI50 [16]: 1.23 µM
TGI [16]: 4.62 µM
GI50 [17]: 1.91 µM
TGI [17]: 4.67 µM
GI50 [18]: 1.27 µM
TGI [18]: 3.27 µM
GI50 [19]: 3.64 µM
TGI [19]: 14.8 µM
GI50 [20]: 1.82 µM
TGI [20]: > 100 µM
GI50 [57]: 3 µM
TGI [57]: 11.1 µM
GI50 [22]: 1.8 µM
TGI [22]: 3.62 µM
GI50 [23]: 1.8 µM
TGI [23]: 3.47 µM
TGI [24]: 2.6 µM
GI50 [25]: 2.25 µM
TGI [25]: 4.84 µM
GI50 [26]: 1.7 µM
TGI [26]: 3.29 µM
GI50 [27]: 2.4 µM
TGI [27]: 12.3 µM
GI50 [28]: 2.97 µM
TGI [28]: 10.8 µM
GI50 [30]: 1.99 µM
TGI [30]: 4.14 µM
GI50 [31]: 1.8 µM
TGI [31]: 3.75 µM
GI50 [32]: 2.22 µM
TGI [32]: 6.4 µM
GI50 [33]: 2.87 µM
TGI [33]: 8.2 µM
GI50 [34]: 3.05 µM
TGI [34]: 11.8 µM
GI50 [35]: 4.35 µM
TGI [35]: 17.8 µM
GI50 [36]: 3.07 µM
TGI [36]: 10.7 µM
GI50 [37]: 1.74 µM
TGI [37]: 4.19 µM
GI50 [38]: 1.95 µM
TGI [38]: 4.65 µM
GI50 [39]: 1.65 µM
TGI [39]: 3.27 µM
GI50 [40]: 4 µM
TGI [40]: 18.6 µM
GI50 [41]: 1.98 µM
TGI [41]: 3.94 µM
GI50 [42]: 1.74 µM
TGI [42]: 3.21 µM
GI50 [43]: 2.48 µM
TGI [43]: 6.76 µM
GI50 [44]: 1.8 µM
TGI [44]: 3.62 µM
GI50 [45]: 1.74 µM
TGI [45]: 3.16 µM
GI50 [46]: 2.74 µM
TGI [46]: 8.06 µM
GI50 [47]: 2.56 µM
TGI [47]: 8.36 µM
GI50 [48]: 3.82 µM
TGI [48]: 13.4 µM
GI50 [49]: 1.85 µM
TGI [49]: 4.36 µM
GI50 [50]: 2.04 µM
TGI [50]: 6.59 µM
GI50 [51]: 2.11 µM
TGI [51]: 5.15 µM
GI50 [58]: 1.15 µM
TGI [58]: 6.04 µM
GI50 [52]: 5.83 µM
TGI [52]: 19.9 µM
GI50 [53]: 1.58 µM
TGI [53]: 3.2 µM
GI50 [54]: 1.88 µM
TGI [54]: 3.87 µM
GI50 [55]: 1.91 µM
TGI [55]: 3.87 µM
GI50 [56]: 1.52 µM
TGI [56]: 4.43 µM

From PubChem BioAssay (NCI)
